From paper PMC8300810, “Antibacterial Residue Excretion via Urine as an Indicator for Therapeutical Treatment Choice and Farm Waste Treatment” (Antibiotics, 2021)

How the values were obtained:
[1] = Concentration in urine compared with muscle of treated pigs; assay type: in vivo; conditions: Figure 4
Excerpt: Urine samples were obtained in parallel with muscle and blood samples gathered for the study performed by Serrano et al.. That study’s aim was to find a suitable matrix for ante mortem tests for the detection of antimicrobial compounds, which would avoid the slaughter of contaminated animals and thus the entrance of antimicrobial compounds into the food chain. The matrix should be characterized via an easy extraction procedure from living animals and a good correlation with the concentration found in muscle. […] These findings agree with those described previously by Seymour et al. for cows: urine samples from treated cows tested positive for the presence of antimicrobial residues even after the end of the withdrawal period set by the manufacturer. Moreover, this issue could also be interpreted as the occurrence of higher levels of antimicrobials in urine compared to other tissues such as muscle.
With the exception of sulfamethoxypyrydazine, concentrations described in urine were much higher than the ones described for muscle.

[2] = cited from earlier work
[3] = Antimicrobial excretion in urine of treated pigs through the withdrawal period, LC-MS/MS
Procedure: Each of these compounds was administered via intramuscular (IM) injection.
A total of 66 previously untreated piglets were procured at treatment onset. Starting at 40 days before administration of the compounds, they were kept on the premises of the Faculty of Veterinary Sciences at the University of Zaragoza (Zaragoza, Spain) and used in tandem for another study. […] From them, 39 were female and 27, male. During acclimatization and withdrawal periods, the piglets were fed ad libitum with a special mixed feed free of antibiotics (ARS Alendi S.A., Huesca, Spain), and water was provided from a separate, controlled water circuit. Piglets were raised in separate pens depending on the antibiotic with which they were administrated.
Urine was collected on different days within the withdrawal period determined by the respective antimicrobial drug manufacturers. It was collected from live pigs via mobilization of the animal and bladder stimulation. At pre-set time intervals, pigs were slaughtered and urine was obtained via bladder puncture; at the same time, urine was gathered from living animals subjected to the same treatment and withdrawal period. Consequently, urine was collected from 1 to 9 pigs on each day of analysis. As animals were bred in batches and slaughtered all along the withdrawal period, the number of sampled animals decreased as the withdrawal period progressed. Samples were kept aliquoted and frozen at −20 °C until analysis.
1.5 mL of urine were spiked with 100 µL of IS spiking solution. 100 µL 0.1M EDTA and 5 mL of purified water were added and mixed. 500 µL were taken and further diluted with 1500 µL of purified water. It was filtered through 0.2 µm directly into HPLC vials.
All urine samples were analysed using a SCIEX Exion LC coupled to a TripleQuad 6500+ triple quadrupole detector equipped with an Acquity UPLC® BEH C18 column (1.7 µm, 2.1 × 100 mm). The mobile phase consisted of eluent A (0.1% formic acid in water) and eluent B (0.1% formic acid in acetonitrile) at a flow rate of 0.4 mL min^−1. […] The injected volume was 5 µL. Positive electrospray ionisation was used, and analytes were detected in MRM mode by monitoring 2 transitions for each compound of interest (Table 3). Regardless of the compound analysed, the technique’s limit of detection (LoD) was 10 ppb.
For each day of the withdrawal period pre-set in this study to evaluate the behaviour of antimicrobials, 1 to 9 samples of urine coming from different animals subjected to the same treatment and withdrawal period were analysed via LC-MS/MS.
The rates of elimination (λz) of antibiotics from urine were determined via regression analysis. The corresponding half-lives of elimination(T1/2) were calculated according to the following equation:
Equation (1): Half-life of elimination where T1/2 is the half-life of elimination and λZ is the rate of elimination. (1) T1/2=Ln (2)/λz

[4] = both, Landrace × Large White, pig, in vivo

SMILES | concentrations in urine compared to muscle [1] | fraction of administered antibiotic eliminated in the faeces [2] [%] | fraction of administered antibiotic excreted in urine via glomerular filtration [2] [%] | elimination period in urine [3, 4] | half-life ([3]; both, Landrace × Large White, pig, urine, im) [h] | concentration in urine at the beginning of the withdrawal period (comparison among compounds) ([3]; pig, in vivo) | time period required to complete the excretion by urine (in words) ([3]; pig, in vivo) | total urine elimination [3, 4] | time period required to complete the excretion by urine (in words) ([3]; urine, pigs, estimated from the regression)
CN(C)[C@@H]1C(O)=C(C(N)=O)C(=O)[C@@]2(O)C(O)=C3C(=O)c4c(O)cccc4[C@@](C)(O)[C@H]3[C@H](O)[C@@H]12 [Oxytetracycline] | much higher | 40 | 60 | over 2 months | 100 | highest concentrations | more than two months | – | –
CCN1CCN(c2cc3c(cc2F)c(=O)c(C(=O)O)cn3C2CC2)CC1 [Enrofloxacin] | much higher | – | – | – | – | – | – | ca. 3 weeks | almost three weeks
COc1ccc(NS(=O)(=O)c2ccc(N)cc2)nn1 [Sulfamethoxypyridazine] | – | – | – | – | – | – | – | ca. 1 weeks | –
